Measured values published in US20240091254A1, “WNT AGONISTS FOR PREVENTION OF CANCER” (ACADEMISH MEDISCH CENTRUM, priority 2021, published 2024).

Legend:
intestinal adenomas = test: Long term adenoma formation in Lgr5-CreErt2;Apcfl/fl mice; assay type: in vivo, mouse; conditions: LiCl pre-treatment and maintenance, 60 days after induction
Description: (§1) Lgr5-EGFP-IRES-Cre^ERT2 Villin-Cre^ERT2, Rosa26mTmG, Apc^fl/fl and Kras^G12D mice have been described earlier^30-34. All in vivo experiments were approved by the animal experimentation committee at the Amsterdam UMC—location Academic Medical Center in Amsterdam under nationally registered licence number AVD1180020172125 and performed according to national guidelines. Mice were housed in a 12 hour light/12 hour dark cycle, with temperatures between 20-24° C. and 40-70% humidity. For short term assays, both male and female mice were used. For long term assays, only females were used to prevent the risk of preliminary dropout due to fighting male mice. All mice were between 6-12 weeks old at the start of the experiments. For all mouse experiments, sufficient sample sizes were determined based on previous studies with a similar study design^3,35. Experimental animals were randomly assigned to the control or lithium treated groups, clone sizes and adenoma counts were scored blindly. […] Mouse discomfort during tumour formation assays was closely monitored, and endpoints were determined as <15% weight loss within 2 days or a mouse grimace scale (MGS) score<3. […] After 60 days, intestines were removed and polyps were counted macroscopically.

human colon organoids = test: Human colon organoids incubated with FAP CM; assay type: cell-based; conditions: FAP CM with or without LiCl
[1] = test system: Wnt pathway (TOP-GFP reporter); test: TOP-GFP Wnt reporter assay in MEFs; assay type: cell-based, mouse
Description: Mouse embryonic fibroblasts (MEFs, ATCC) and HEK293T (ATCC) cells were both cultured in Dulbecco's Modified Eagle's Medium (DMEM) supplemented with 10% fetal calf serum (FCS), 1% Glutamine, and antibiotic penicillin and streptomycin. Cells were maintained at 37° C. in humidified air containing 5% CO2. All cell lines were routinely checked for mycoplasm contamination, no cell line authentication was performed.
Mouse embryonic fibroblasts (MEFs) were cultured in Dulbecco's Modified Eagle's Medium (DMEM) supplemented with 10% fetal calf serum (FCS), 1% Glutamine, and antibiotic penicillin and streptomycin. MEFs were stably transduced with Wnt reporter TOP-GFP (Addgene plasmid #35491). For TOP-GFP assays, cells were stimulated with Wnt3A conditioned medium for 24 hours after which GFP positivity was measured by flow cytometry.

[2] = Lithium levels in mouse serum after oral LiCl; assay type: in vivo; conditions: oral LiCl 300 mg/liter in tap water, Lgr5-CreErt2;Rosa26mTmG mice
Description: as §1

WT organoids = test: Murine WT intestinal organoids incubated with conditioned medium or recombinant Wnt antagonists (expansion, clonogenicity); assay type: cell-based, mouse; conditions: WT organoids, Apc-/- CM, 5 mM LiCl
Description: Murine intestinal crypts were isolated from Lgr5-EGFP-IRES-Cre^ERT2, Lgr5-EGFP-IRES-Cre^ERT2;Ape/or Villin-Cre^ERT2;Apc^fl/fl mice as described by Sato et al.^35. In short, intestines were removed from the mouse and washed thoroughly with ice-cold PBS. Next, the intestine was opened longitudinally and the villi were gently scraped off by a glass cover slide. The intestine was cut into pieces of 5×5 mm and incubated in 2 mM EDTA solution for 30 min. at 4° C. After removal of the EDTA, the crypts were resuspended in ice-cold 1% FCS in PBS by vigorously shaking the tube and passing the supernatant through a 70 µm strainer. Isolated crypts were resuspended in Matrigel® (Corning) and seeded in pre-heated 24-well plates, supplemented with basal organoid medium consisting of advanced DMEM/F12 medium (Gibco) containing 100× N2 and 50× B27 supplements, 100× Glutamax, 5 mM HEPES, 1 mM N-acetyl-L-cysteine (Sigma), and 100× antibiotic/antimycotic (all Gibco). The basal organoid medium was freshly supplemented with the following growth factors: mouse EGF 50 ng/ml (TEBU-BIO), R-spondin (conditioned medium), Noggin (conditioned medium). The first two days after crypt isolation CHIR99021 (Axon Medchem) and ROCK inhibitor (Sigma) was added to the medium. Ctnnb1^S organoids expressing a constitutive active variant of β-catenin were generated as described by Adam et al.^36. For in vitro recombination of loxP flanked alleles, 1 μM 40H-Tamoxifen (Sigma) was added to the medium. Recombination of the Apc gene was validated by digital droplet PCR (Bio-Rad) using EvaGreen® Supermix (Bio-Rad). Lgr5-EGFP-IRES-Cre^ERT2 organoids, referred to as wild type (WT) organoids, were stably transduced with a red fluorescent mCherry construct (LeGO-C2, Addgene #27399). The in vitro recombined Lgr5-EGFP-IRES-Cre^ERT2;Apc^fl/fl, referred to as Apc^−/−, were stably transduced with a green fluorescent Venus construct (LeGO-V2, Addgene #27340). During competition assays, organoids were plated in equal numbers in 24-well plates and full wells were scanned over time by the EVOS FL Cell Imaging System (Thermo Scientific). Conditioned medium (CM) was taken from 2-3 day old WT or Apc^−/− organoid cultures and freshly supplemented with growth factors R-spondin, Noggin and mEGF. During the competition assays the medium (normal and conditioned) was replaced every other day to minimize effects of medium depletion. To assess the effect of medium depletion, CM was 10× concentrated using 10 kDa Amicon® centrifugal filters (Millipore) and added to fresh ENR medium as 1:10. […] Recombinant proteins NOTUM (2 μg/mL, R&D, 9150-NO-050), WIF1 (5 μg/mL, R&D, 135-WF-050) and DKK2 (1 μg/mL, R&D, 2435-DKB-010) were freshly added to the culture medium, medium was refreshed every other day.

Structure (SMILES): [Cl-].[Li+] [LiCl, lithium chloride]
- Adenoma formation (number of adenomas) (intestinal adenomas): markedly reduced adenoma formation in all segments of the intestine
- Stemness (LGR5 expression) and clonogenicity of human colon organoids incubated with FAP CM (human colon organoids): rescued loss of sternness and clonogenicity
- Effect on Apc-/- CM reduction of Wnt3a mediated Wnt activation (TOP-GFP) ([1]; MEFs, TOP-GFP reporter, 5 mM LiCl): completely abrogated this effect
- Wnt signalling activation in Wnt reporter assay, Li2CO3 compared with LiCl ([1]; comparable concentrations (5 or 10 mM)): activated the same amount of Wnt signalling
- Serum concentrations (Li+), tolerability [2]: well-tolerated serum concentrations
- Resistance to Apc-/- CM induced reduction in proliferation and clonogenicity (WT organoids): resistant to the Apc^−/− CM induced reduction in proliferation and clonogenicity
